The text below walks through data of patent publication US10428048B2, “Androgen receptor antagonists” (CITY OF HOPE, priority 2015, dated 2019).

Entries after “also recorded” stand apart in the source; their conditions may differ. Structures can show the parent of a compound that is named as a salt. Where two headings read alike, the source gives them in different places.

In data set [1] the test system is enzalutamide (enz)-resistant LNCaP cells. Kind of data set: Enzalutamide-resistant LNCaP cell growth in culture. In kind it is cell-based, human.
The subject of data set [2] is other nuclear receptors. Briefly: Specificity for AR versus other nuclear receptors. Type of data set: cell-based. The conditions noted are these: P24 0.1, 0.3, 1 μM; P7 0.3, 1, 3 μM.
Data set [3] is described as follows: Further PK studies, single dose, DMSO/PBS or BCD formulation. To be noted: blood at 0.5, 2 and 24-hrs; for Drug level in blood after administration, BCD formulation: 25 mg/kg single dose; for Drug level in blood after administration, DMSO/PBS formulation: 1 mg/kg single dose.
Description: Treatment: 1-2 mice with single dose and blood at 0.5, 2 and 24-hrs.
Data set [4] can be described thus: Toxicity studies, MTD determination. To be noted: in vivo. How it is done:
In DMSO/PBS formulation, with MTD single dose: IV: ˜1 mg/kg; PO (oral): not determined due to poor absorption; and IP: ˜5 mg/kg. With MTD daily dosing: IP: ˜1 mg/kg. In Beta cyclodextrin formulation: MTD single dose: IV: not determined; PO (oral); ˜200 mg/kg; IP: >10 mg/kg. In MTD daily dosing: IP: at least 5 mg/kg; PO: at least 100 mg/kg.

The nature of data set [5]: Solubility in solvents and formulations.
The subject of data set [6] is 22Rv1 cells. Briefly: 22Rv1 cell growth in culture. Type of data set: cell-based, human. To be noted: androgen-independent, AR splice variant expressing 22Rv1 cells; tosylate. How it is done:
(§1) For growth curves, cells were transferred to charcoal-stripped media three days before they were split and plated at a density of approximately 20,000 cells/well in 48 well plates, in quadruplicate. The assay was repeated three times. The following day, medium with the indicated drugs was added to the cells. Proliferation was determined by measuring the DNA content of the cells in each well. Each day, the cells were fixed in 100% cold methanol, followed by staining for 5 min at RT with 0.2 ng/mL 4′,6-diamidino-2-phenylindole (DAPI) in PBS. The cells were washed with PBS, then read on a fluorescence plate reader (FPR) using 365/439 excitation/emission wavelengths. A student's T test was used to determine significant differences among populations.

For data set [7], the system named is LNCaP cells. Briefly: LNCaP prostate cancer cell growth (DAPI staining). In kind it is cell-based, human. The conditions noted are these: for Inhibition of LNCaP cell growth in culture: AR-dependent LNCaP cells; for inhibition at 0.3 µM: Homo sapiens, LNCaP, read-out: LNCaP growth inhibition at 300 nM. How it is done: as §1
Data set [8] deals with AR target genes. Kind of data set: Inhibition of AR activity in vivo (qRT-PCR of prostate tissue). Details: species or system Mice. To be noted: 5 mg/kg via osmotic pump for 4 weeks. How it is done: Total RNA was isolated from homogenized prostate or tumor tissue using an RNAeasy kit (Qiagen). RNA was reverse-transcribed (MMLV-RT; Invitrogen), and the expression of androgen-regulated genes was assessed by qPCR using a StepOne Real Time PCR System (Applied Biosystems), using SYBR green (Invitrogen) as the detecting dye and Rox (Invitrogen) as the reference dye. Differences between treated (x) and no DHT control (y) samples were normalized to RPL19 transcript levels (i.e., androgen-unresponsive) and determined with the following calculation: (2[Ctxgene1−Ctygene1])/(2[CtxRPL19−CtyRPL19]).

The nature of data set [9]: P24 microsomal analysis, mouse microsomes. In kind it is in vitro ADME. How it is done:
(§2) FIG. 16. P24 microsomal analysis.
(§3) As depicted in FIG. 16, the concentration of compound. P24 solution tested with incubation with microsomes.

The nature of data set [10]: P24 microsomal analysis, human microsomes. In kind it is in vitro ADME. How it is done:
as §2, §3

The mark [11] stands for this setting: ip, Beta cyclodextrin formulation, IP, daily dosing, read-out: MTD daily dosing IP.
The mark [12] stands for this setting: ip, Beta cyclodextrin formulation, IP, single dose, read-out: MTD single dose IP.
Where [13] appears, read: ip, DMSO/PBS formulation, IP, daily dosing, read-out: MTD daily dosing IP.
The mark [14] stands for this setting: ip, DMSO/PBS formulation, IP, single dose, read-out: MTD single dose IP.
[15] abbreviates: iv, DMSO/PBS formulation, IV, single dose, read-out: MTD single dose IV.
The mark [16] stands for this setting: po, Beta cyclodextrin formulation, PO, daily dosing, read-out: MTD daily dosing PO.
Setting [17] is: po, Beta cyclodextrin formulation, PO, single dose, read-out: MTD single dose PO (oral).
[18] abbreviates: 100 ng/ml P24, absence of NADPH.
[19] abbreviates: 100 ng/ml P24, presence of NADPH.

For the compound `Cc1cc(/C=C/c2ccc3cc(N(C)C)ccc3[n+]2C)c(C)[nH]1.Cc1ccc(S(=O)(=O)[O-])cc1` [P7, (E)-6-Dimethylamino-2-(2-(2,5-dimethyl-1H-pyrrol-3-yl)ethenyl)-1-methylquinolinium tosylate], in data set [1], the “Inhibition of growth of enzalutamide-resistant LNCaP cells” value is “inhibit the growth”. For the same compound, the “Activity against other nuclear receptors” value in data set [2] is on record as “little activity”. Besides, the “Drug level in blood after administration, BCD formulation” value in data set [3] is recorded as “more continuous peak”. The “Drug level in blood after administration, DMSO/PBS formulation” value in [3] is given as “almost no drug”. For the same compound, the MTD in [4] (setting [11]) is at least 5 mg/kg; in [4] (setting [12]), above 10 mg/kg; in data set [4] (setting [13]) it was around 1 mg/kg; in data set [4] (setting [14]) it was around 5 mg/kg; in [4] (setting [15]) it was around 1 mg/kg; in data set [4] (setting [16]) it was at least 100 mg/kg. For the same compound, the MTD in data set [4] (setting [17]) was around 200 mg/kg. Moreover, the solubility in data set [5] (DMSO, organic solvent or mixture) is around 10000 µg/mL; in data set [5] (acetonitrile, organic solvent or mixture), below 5000 µg/mL; in data set [5] (beta cyclodextrin, aqueous with cosolvent or surfactant or cyclodextrin), around 5000 µg/mL; in data set [5] (buffer B (aqueous), aqueous buffer) it was below 5000 µg/mL; in data set [5] (ethanol, organic solvent or mixture) it was around 5000 µg/mL; in data set [5] (gamma cyclodextrin, aqueous with cosolvent or surfactant or cyclodextrin) it was around 5000 µg/mL. Further, the “Inhibition of 22Rv1 cell growth in culture” value in data set [6] is recorded as “inhibit the growth; also recorded: inhibited”. The “Inhibition of LNCaP cell growth in culture” value in data set [7] (tosylate) is reported as “inhibit the growth; also recorded: inhibited”. In data set [7], the inhibition at 0.3 µM came to 100%.

For `Cc1cccnc1-n1c(C)cc(/C=C/c2ccc3cc(N(C)C)ccc3[n+]2C)c1C` [P24, (E)-6-Dimethylamino-2-(2-(2,5-dimethyl-1-(3-methylpyridin-2-yl)-1H-pyrrol-3-yl)ethenyl)-1-methylquinolinium tosylate], the “Inhibition of growth of enzalutamide-resistant LNCaP cells” value in data set [1] was “inhibit the growth”. In data set [2], the “Activity against other nuclear receptors” value was “little activity”. The “Inhibition of AR target genes in prostate tissue (qRT-PCR)” value in data set [8] is listed as “inhibition of AR target genes”. Further, the “Drug level in blood after administration, BCD formulation” value in data set [3] is “significant spike”. In addition, in data set [3], the “Drug level in blood after administration, DMSO/PBS formulation” value is “almost no drug”. The MTD is at least 5 mg/kg in data set [4] (setting [11]); above 10 mg/kg in data set [4] (setting [12]); around 1 mg/kg in [4] (setting [13]); around 5 mg/kg in [4] (setting [14]); around 1 mg/kg in data set [4] (setting [15]); at least 100 mg/kg in [4] (setting [16]). Also, the MTD in data set [4] (setting [17]) is around 200 mg/kg. For the same compound, the “Breakdown in microsomes without NADPH (chemical stability)” value in data set [9] (setting [18]) and in [10] (setting [18]) was “lack of breakdown” throughout. The “Metabolism in microsomes, NADPH dependence” value in data set [9] (setting [19]) and in data set [10] (setting [19]) was “NADPH dependent” in each case. The “Inhibition of 22Rv1 cell growth in culture” value in [6] is given as “inhibit the growth; also recorded: inhibited”. In data set [7] (tosylate), the “Inhibition of LNCaP cell growth in culture” value is listed as “inhibit the growth; also recorded: inhibited”. Also, the inhibition at 0.3 µM in data set [7] came out at 100%.

For the compound `CNC(=O)c1ccc(N2C(=S)N(c3ccc(C#N)c(C(F)(F)F)c3)C(=O)C2(C)C)cc1F` [enzalutamide, reference compound], the “Inhibition of LNCaP cell growth in culture” value in [7] was “inhibited”.

One may read the solubility as the dissolved amount per volume that the medium holds. The inhibition is the drop in the measured response relative to a control, in per cent.
